In the assay the target is T1, human TREM2 (Homo sapiens, UniProt Q9NZC2).
T1 construct: expressed in transfected cells; host or cells: HEK293T
T1 sequence (Q9NZC2 19-230): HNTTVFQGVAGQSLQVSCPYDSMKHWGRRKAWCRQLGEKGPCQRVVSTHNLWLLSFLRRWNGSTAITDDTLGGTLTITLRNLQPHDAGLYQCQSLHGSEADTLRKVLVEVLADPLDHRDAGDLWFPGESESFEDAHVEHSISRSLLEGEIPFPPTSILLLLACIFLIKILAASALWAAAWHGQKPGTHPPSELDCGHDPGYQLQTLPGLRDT
T1 sequence (O43914 22-113 partner): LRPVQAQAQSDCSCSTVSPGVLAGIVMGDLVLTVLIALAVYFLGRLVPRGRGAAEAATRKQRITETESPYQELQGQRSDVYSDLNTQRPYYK
Nature of the assay: TREM2 agonist potency by cellular phosphorylation of Syk (AlphaLisa) in HEK293T-hTREM2 cells. Type of assay: cell-based. The note with it: HEK293 cells expressing human TREM2 and DAP12, Table D. In short, it runs like this:
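Agonist EC50 from a variable-slope four-parameter fit of % activation, based on AlphaLisa phospho-Syk levels in lysates. Cells: HEK293T-hTREM2 (with DAP12), treated 45 min at room temperature with compound in assay buffer.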
As a reminder, the EC50 is the midpoint of the concentration-response curve. A lower EC50 goes with an effect from little substance. Consider `Cc1ccc2c(-c3ccc(F)cc3F)nc([C@H]3CCO[C@@H](c4cnn(C5CC5)c4)C3)nc2n1` [Example 215, 2-((2R,4S)-2-(1-cyclopropyl-1H-pyrazol-4-yl)tetrahydro-2H-pyran-4-yl)-4-(2,4-difluorophenyl)-7-methylpyrido[2,3-d]pyrimidine], for which the EC50 is 50 to 500 nM.
In the case of `Cc1cc2c(-c3ccc(Cl)cc3F)nc([C@@H]3CCO[C@@H](c4cnn(C5CC5)c4)C3)nc2nc1C` [Example 216, 4-(4-chloro-2-fluorophenyl)-2-((2R,4R)-2-(1-cyclopropyl-1H-pyrazol-4-yl)tetrahydro-2H-pyran-4-yl)-6,7-dimethylpyrido[2,3-d]pyrimidine] it was less than 50 nM; in that of `Cc1ccc2c(-c3ccc(C(F)(F)F)cc3)nc([C@H]3CCO[C@@H](c4cnn(C5CC5)c4)C3)nc2n1` [Example 217, 2-((2R,4S)-2-(1-cyclopropyl-1H-pyrazol-4-yl)tetrahydro-2H-pyran-4-yl)-7-methyl-4-(4-(trifluoromethyl)phenyl)pyrido [2,3-d]pyrimidine], less than 50 nM; in that of `Cc1ccc2c(-c3ccc(Cl)c(F)c3F)nc([C@H]3CCO[C@@H](c4cnn(C5CC5)c4)C3)nc2n1` [Example 218, 4-(4-chloro-2,3-difluorophenyl)-2-((2R,4S)-2-(1-cyclopropyl-1H-pyrazol-4-yl)tetrahydro-2H-pyran-4-yl)-7-methylpyrido[2,3-d]pyrimidine], less than 50 nM.
The same measure for `Cc1ccc2c(-c3cc(F)c(Cl)cc3F)nc([C@H]3CCO[C@@H](c4cnn(C5CC5)c4)C3)nc2n1` [Example 219, 4-(4-chloro-2,5-difluorophenyl)-2-((2R,4S)-2-(1-cyclopropyl-1H-pyrazol-4-yl)tetrahydro-2H-pyran-4-yl)-7-methylpyrido[2,3-d]pyrimidine]: less than 50 nM; for `Cc1ccc2c(C34CC(C(F)(F)F)(C3)C4)nc([C@H]3C[C@@H](C)O[C@@H](c4cnn(C5CC5)c4)C3)nc2n1` [Example 220, 2-((2R,4S,6R)-2-(1-cyclopropyl-1H-pyrazol-4-yl)-6-methyltetrahydro-2H-pyran-4-yl)-7-methyl-4-(3-(trifluoromethyl)bicyclo[1.1.1]pentan-1-yl)pyrido[2,3-d]pyrimidine]: 500 to 3000 nM; for `Cc1ccc2c(C34CC(C(F)(F)F)(C3)C4)nc([C@H]3CCO[C@@H](c4cnn(C5CC5)c4)C3)nc2n1` [Example 221, 2-((2R,4S)-2-(1-cyclopropyl-1H-pyrazol-4-yl)tetrahydro-2H-pyran-4-yl)-7-methyl-4-(3-(trifluoromethyl)bicyclo[1.1.1]pentan-1-yl)pyrido[2,3-d]pyrimidine]: less than 50 nM.
The same measure for `Cc1cc2nc([C@H]3CCO[C@@H](c4cnn(C5CC5)c4)C3)nc(-c3ccc(Cl)cc3F)c2nc1C` [Example 222, 4-(4-chloro-2-fluorophenyl)-2-((2R,4S)-2-(1-cyclopropyl-1H-pyrazol-4-yl)tetrahydro-2H-pyran-4-yl)-6,7-dimethylpyrido[3,2-d]pyrimidine]: 500 to 3000 nM; for `Cc1nc2nc([C@@H]3CCO[C@@H](c4cnn(C5CC5)c4)C3)cc(-c3ccc(Cl)cc3F)c2nc1C` [Example 223, 8-(4-chloro-2-fluorophenyl)-6-((2R,4R)-2-(1-cyclopropyl-1H-pyrazol-4-yl)tetrahydro-2H-pyran-4-yl)-2,3-dimethylpyrido[2,3-b]pyrazine]: 50 to 500 nM; for `Cc1nc2nc([C@H]3CCO[C@@H](c4cnn(C5CC5)c4)C3)cc(-c3ccc(Cl)cc3F)c2nc1C` [Example 224, 8-(4-chloro-2-fluorophenyl)-6-((2R,4S)-2-(1-cyclopropyl-1H-pyrazol-4-yl)tetrahydro-2H-pyran-4-yl)-2,3-dimethylpyrido[2,3-b]pyrazine]: less than 50 nM.
The compound `Cc1cc([C@@H]2C[C@H](c3cc4nc(C)c(C)cc4c(-c4ccc(Cl)cc4F)n3)CCO2)ccn1` [Example 225, 5-(4-chloro-2-fluorophenyl)-2,3-dimethyl-7-((2S,4R)-2-(2-methylpyridin-4-yl)tetrahydro-2H-pyran-4-yl)-1,6-naphthyridine] came in with a half-maximal effective concentration (EC50) of 500 to 3000 nM.
Compound `Cc1cc([C@@H]2C[C@H](c3cc4nc(C)c(C)cc4c(-c4ccc(F)cc4F)n3)CCO2)ccn1` [Example 226, 5-(2,4-difluorophenyl)-2,3-dimethyl-7-((2S,4R)-2-(2-methylpyridin-4-yl)tetrahydro-2H-pyran-4-yl)-1,6-naphthyridine] returned an EC50 of 500 to 3000 nM.
The same measure for `Cc1nc2cc([C@@H]3CCO[C@H](c4cnn(C5CC5)c4)C3)cc(-c3ccc(Cl)cc3F)c2nc1C` [Example 227, 5-(4-chloro-2-fluorophenyl)-7-((2S,4R)-2-(1-cyclopropyl-1H-pyrazol-4-yl)tetrahydro-2H-pyran-4-yl)-2,3-dimethylquinoxaline]: 500 to 3000 nM; for `Cc1nc2cc([C@H]3CCO[C@@H](c4cnn(C5CC5)c4)C3)cc(-c3ccc(Cl)cc3F)c2nc1C` [Example 228, 5-(4-chloro-2-fluorophenyl)-7-((2R,4S)-2-(1-cyclopropyl-1H-pyrazol-4-yl)tetrahydro-2H-pyran-4-yl)-2,3-dimethylquinoxaline]: 50 to 500 nM; for `Cc1nc2cc([C@H]3CCO[C@@H](c4cnn(C5CC5)c4)C3)cc(-c3ccc(F)cc3Cl)c2nc1C` [Example 229, 5-(2-chloro-4-fluorophenyl)-7-((2R,4S)-2-(1-cyclopropyl-1H-pyrazol-4-yl)tetrahydro-2H-pyran-4-yl)-2,3-dimethylquinoxaline]: 50 to 500 nM.
Compound `Cc1nc2cc([C@@H]3CCO[C@@H](c4cnn(C5CC5)c4)C3)cc(-c3ccc(Cl)cc3F)c2nc1C` [Example 230, 5-(4-chloro-2-fluorophenyl)-7-((2R,4R)-2-(1-cyclopropyl-1H-pyrazol-4-yl)tetrahydro-2H-pyran-4-yl)-2,3-dimethylquinoxaline] yielded an EC50 of 3000 to 100000 nM.
Take `Cc1ccc2c(-c3ccc(F)cc3F)cc([C@H]3CCO[C@@H](c4cnn(C5CC5)c4)C3)nc2n1` [Example 231]: the EC50 lay in the range of 50 to 500 nM.
The same measure for `Cc1cc2c(-c3ccc(F)cc3F)cc([C@H]3CCO[C@@H](c4cnn(C5CC5)c4)C3)nc2nc1C` [Example 232]: less than 50 nM.
Turning to `Cc1cc2c(-c3ccc(Cl)cc3F)cc([C@H]3CCO[C@@H](c4cnn(C5CC5)c4)C3)nc2nc1C` [Example 233, 5-(4-chloro-2-fluoro-phenyl)-7-[(2R,4S)-2-(1-cyclopropylpyrazol-4-yl)tetrahydropyran-4-yl]-2,3-dimethyl-1,8-naphthyridine], the EC50 was less than 50 nM.
In the case of `Cc1nc2nc(-c3ccc(Cl)cc3F)cc(C3CCO[C@@H](c4cnn(C5CC5)c4)C3)c2nc1C` (stereo partly drawn) [Example 235, 6-(4-chloro-2-fluorophenyl)-8-((2R)-2-(1-cyclopropyl-1H-pyrazol-4-yl)tetrahydro-2H-pyran-4-yl)-2,3-dimethylpyrido[2,3-b]pyrazine] it was less than 50 nM.
The same measure for `Cc1nc2nc(-c3ccc(Cl)cc3F)cc([C@@H]3CCO[C@@H](c4cnn(C5CC5)c4)C3)c2nc1C` [Example 236, 6-(4-chloro-2-fluorophenyl)-8-((2R,4R)-2-(1-cyclopropyl-1H-pyrazol-4-yl)tetrahydro-2H-pyran-4-yl)-2,3-dimethylpyrido[2,3-b]pyrazine]: 50 to 500 nM.
Turning to `Cc1nc2nc(-c3ccc(Cl)cc3F)cc([C@H]3CCO[C@@H](c4cnn(C5CC5)c4)C3)c2nc1C` [Example 237, 6-(4-chloro-2-fluorophenyl)-8-((2R,4S)-2-(1-cyclopropyl-1H-pyrazol-4-yl)tetrahydro-2H-pyran-4-yl)-2,3-dimethylpyrido[2,3-b]pyrazine], the EC50 was less than 50 nM.
`Fc1ccc(-c2nc([C@H]3CCO[C@@H](c4cnn(C5CC5)c4)C3)cc3nc4c(nc23)COC4)c(F)c1` [Example 238, 7-((2R,4S)-2-(1-cyclopropyl-1H-pyrazol-4-yl)tetrahydro-2H-pyran-4-yl)-5-(2,4-difluorophenyl)-1,3-dihydrofuro[3,4-b]pyrido[3,4-e]pyrazine] had an EC50 of 50 to 500 nM.
As for `COc1ccc(-c2nc([C@H]3CCO[C@@H](c4cnn(C5CC5)c4)C3)nc3nc(C)c(C)nc23)cn1` [Example 239, 2-((2R,4S)-2-(1-cyclopropyl-1H-pyrazol-4-yl)tetrahydro-2H-pyran-4-yl)-4-(6-methoxypyridin-3-yl)-6,7-dimethylpteridine], the EC50 lay within 50 to 500 nM.
The same measure for `Cc1nc2nc(N3CCO[C@@H](c4cnn(C5CC5)c4)C3)nc(-c3ccc4c(c3)CC4)c2nc1C` [Example 240, (S)-4-(4-(bicyclo[4.2.0]octa-1,3,5-trien-3-yl)-6,7-dimethylpteridin-2-yl)-2-(1-cyclopropyl-1H-pyrazol-4-yl)morpholine]: 50 to 500 nM; for `Cc1nc2nc(N3C[C@@H](C)O[C@@H](c4cnn(C5CC5)c4)C3)nc(-c3ccnn3C)c2nc1C` [Example 241, (2S,6R)-2-(1-cyclopropyl-1H-pyrazol-4-yl)-4-(6,7-dimethyl-4-(1-methyl-1H-pyrazol-5-yl)pteridin-2-yl)-6-methylmorpholine]: 50 to 500 nM.
In the case of `Cc1nc2nc(N3CCO[C@H](c4cnn(C5CC5)c4)C3)nc(-c3ccc4c(c3)CC4)c2nc1C` [Example 242, (R)-4-(4-(bicyclo[4.2.0]octa-1,3,5-trien-3-yl)-6,7-dimethylpteridin-2-yl)-2-(1-cyclopropyl-1H-pyrazol-4-yl)morpholine] it was less than 50 nM; in that of `Cc1ccc(-c2nc(N3C[C@@H](C)O[C@@H](c4cnn(C5CC5)c4)C3)nc3nc(C)c(C)nc23)o1` [Example 243, (2S,6R)-2-(1-cyclopropyl-1H-pyrazol-4-yl)-4-(6,7-dimethyl-4-(5-methylfuran-2-yl)pteridin-2-yl)-6-methylmorpholine], 50 to 500 nM.
In the case of `Cc1ccc(-c2nc(N3C[C@@H](C)O[C@@H](c4cnn(C5CC5)c4)C3)nc3nc(C)c(C)nc23)s1` [Example 244, (2S,6R)-2-(1-cyclopropyl-1H-pyrazol-4-yl)-4-(6,7-dimethyl-4-(5-methylthiophen-2-yl)pteridin-2-yl)-6-methylmorpholine] it was 50 to 500 nM.

The record behind these values is patent US20240309003A1, “HETEROCYCLIC COMPOUNDS AS TRIGGERING RECEPTOR EXPRESSED ON MYELOID CELLS 2 AGONISTS AND METHODS OF USE” (Vigil Neuroscience, Inc., priority 2021, published 2024).
